Reference: article PMC7901654, “Bioisosteric Discovery of NPA101.3, a Second-Generation RET/VEGFR2 Inhibitor Optimized for Single-Agent Polypharmacology” (Journal of Medicinal Chemistry, 2020)

Assays:
Experiment in all cases: KinomeScan panel screen
Assay type in all cases: binding
TIE2 = target: T1, TIE2 (Homo sapiens, UniProt Q02763); details: TIE2, 100 nM; read-out: Percent Control
T1 construct: purchased DiscoveRx KINOMEscan (TRKA and CSF1R IC50 enzymes from Invitrogen)
Experimental: (§1) In addition, NPA101.3, at a concentration of 100 nM, was subjected to a kinome scan against a 96-kinase panel representing major kinome clusters (Table S2). The compound featured good selectivity, displaying strong binding activity (>90% bound) for only seven additional kinases [CSF1R (colony stimulating factor 1 receptor), FRK (fyn-related Src family tyrosine kinase), HCK (HCK proto-oncogene, Src family tyrosine kinase), LYN (lyn proto-oncogene, Src family tyrosine kinase), MKNK2 (MAPK-interacting serine/threonine kinase 2), TRKA (neurotrophic receptor tyrosine kinase 1), and TRKC (neurotrophic receptor tyrosine kinase 3)] and weak binding (>10–35% bound) for six other kinases (Table S2 and Figure S2). It is important to note that the measurement of binding affinity, which is based on control ligand displacement (Kd), is more sensitive than the in vitro kinase assay. Among the seven kinases with >90% binding, TRKA and CSF1R were selected for an in vitro kinase assay.
(§2) Supplementary Table S2: NPA101.3 KinomeScan Panel screen.
(§3) NPA101.3 was screened at a single concentration of 100 nM. Hits values lower than
(§4) 10% of control were considered strongly positive.
(§5) DiscoveRx Gene Entrez Gene Percent Compound
(§6) Symbol Symbol Control Concentration

MLK3 = target: T2, MLK3 (Homo sapiens, UniProt Q16584); details: MLK3, 100 nM; read-out: Percent Control
T2 construct: purchased DiscoveRx KINOMEscan (TRKA and CSF1R IC50 enzymes from Invitrogen)
Experimental: as §1, §2, §3, §4, §5, §6

DRAK1 = target: T3, DRAK1 (Homo sapiens, UniProt Q9UEE5); details: DRAK1, 100 nM; read-out: Percent Control
T3 construct: purchased DiscoveRx KINOMEscan (TRKA and CSF1R IC50 enzymes from Invitrogen)
Experimental: as §1, §2, §3, §4, §5, §6

FRK = target: T4, FRK (Homo sapiens, UniProt P42685); details: 100 nM
T4 construct: purchased DiscoveRx KINOMEscan (TRKA and CSF1R IC50 enzymes from Invitrogen)
T4 sequence (P42685 whole entry): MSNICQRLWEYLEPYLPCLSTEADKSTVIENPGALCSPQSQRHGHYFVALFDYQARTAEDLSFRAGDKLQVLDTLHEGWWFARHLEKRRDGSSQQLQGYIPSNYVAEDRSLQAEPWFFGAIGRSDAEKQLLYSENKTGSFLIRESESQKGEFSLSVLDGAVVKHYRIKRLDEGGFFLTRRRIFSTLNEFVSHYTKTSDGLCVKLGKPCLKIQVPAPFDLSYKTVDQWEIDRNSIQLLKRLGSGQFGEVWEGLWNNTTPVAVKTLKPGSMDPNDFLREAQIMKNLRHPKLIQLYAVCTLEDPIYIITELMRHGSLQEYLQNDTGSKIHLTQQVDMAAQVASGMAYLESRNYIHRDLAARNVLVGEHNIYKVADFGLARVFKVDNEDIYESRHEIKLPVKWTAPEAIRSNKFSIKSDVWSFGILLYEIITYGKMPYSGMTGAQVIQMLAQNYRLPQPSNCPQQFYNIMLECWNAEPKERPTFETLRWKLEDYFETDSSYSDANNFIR
Experimental: as §1, §2, §3, §4, §5, §6

PKAC-beta = target: T5, PKAC-beta (Homo sapiens, UniProt P22694); details: 100 nM, read-out: Percent Control
T5 construct: purchased DiscoveRx KINOMEscan (TRKA and CSF1R IC50 enzymes from Invitrogen)
Experimental: as §1, §2, §3, §4, §5, §6

MEK1 = target: T6, MEK1 (Homo sapiens, UniProt Q02750); details: MEK1, 100 nM; read-out: Percent Control
T6 construct: purchased DiscoveRx KINOMEscan (TRKA and CSF1R IC50 enzymes from Invitrogen)
Experimental: as §1, §2, §3, §4, §5, §6

[1] = target: T7, JAK1(JH2domain-pseudokinase) (Homo sapiens, UniProt P23458); details: 100 nM, read-out: Percent Control
T7 construct: JAK1(JH2domain-pseudokinase); purchased DiscoveRx KINOMEscan (TRKA and CSF1R IC50 enzymes from Invitrogen)
Experimental: as §1, §2, §3, §4, §5, §6

TRKC = target: T8, TRKC (Homo sapiens, UniProt Q16288); details: 100 nM
T8 construct: purchased DiscoveRx KINOMEscan (TRKA and CSF1R IC50 enzymes from Invitrogen)
T8 sequence (Q16288 32-839): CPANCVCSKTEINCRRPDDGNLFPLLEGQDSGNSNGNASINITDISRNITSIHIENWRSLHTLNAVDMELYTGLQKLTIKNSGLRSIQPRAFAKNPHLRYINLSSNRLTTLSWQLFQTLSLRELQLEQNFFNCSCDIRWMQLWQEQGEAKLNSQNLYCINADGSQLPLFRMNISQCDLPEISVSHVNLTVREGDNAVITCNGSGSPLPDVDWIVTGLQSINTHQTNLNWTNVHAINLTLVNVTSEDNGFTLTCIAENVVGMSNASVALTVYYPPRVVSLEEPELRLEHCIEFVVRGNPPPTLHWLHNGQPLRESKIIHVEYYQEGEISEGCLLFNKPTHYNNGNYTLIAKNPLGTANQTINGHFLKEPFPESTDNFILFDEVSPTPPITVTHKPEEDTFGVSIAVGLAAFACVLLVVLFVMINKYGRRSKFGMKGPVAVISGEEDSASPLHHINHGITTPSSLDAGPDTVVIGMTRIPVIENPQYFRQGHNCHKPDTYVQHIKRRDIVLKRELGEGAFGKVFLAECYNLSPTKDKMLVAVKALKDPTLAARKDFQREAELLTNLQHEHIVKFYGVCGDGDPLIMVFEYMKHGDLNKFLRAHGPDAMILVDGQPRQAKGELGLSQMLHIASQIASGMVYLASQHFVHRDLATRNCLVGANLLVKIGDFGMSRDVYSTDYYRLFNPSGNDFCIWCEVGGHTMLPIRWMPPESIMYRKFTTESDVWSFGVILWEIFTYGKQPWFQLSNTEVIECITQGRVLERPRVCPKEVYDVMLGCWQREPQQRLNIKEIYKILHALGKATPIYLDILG
Experimental: as §1, §2, §3, §4, §5, §6

CSF1R = target: T9, CSF1R (Homo sapiens, UniProt P07333); details: 100 nM
T9 construct: purchased Invitrogen
T9 sequence (P07333 20-972): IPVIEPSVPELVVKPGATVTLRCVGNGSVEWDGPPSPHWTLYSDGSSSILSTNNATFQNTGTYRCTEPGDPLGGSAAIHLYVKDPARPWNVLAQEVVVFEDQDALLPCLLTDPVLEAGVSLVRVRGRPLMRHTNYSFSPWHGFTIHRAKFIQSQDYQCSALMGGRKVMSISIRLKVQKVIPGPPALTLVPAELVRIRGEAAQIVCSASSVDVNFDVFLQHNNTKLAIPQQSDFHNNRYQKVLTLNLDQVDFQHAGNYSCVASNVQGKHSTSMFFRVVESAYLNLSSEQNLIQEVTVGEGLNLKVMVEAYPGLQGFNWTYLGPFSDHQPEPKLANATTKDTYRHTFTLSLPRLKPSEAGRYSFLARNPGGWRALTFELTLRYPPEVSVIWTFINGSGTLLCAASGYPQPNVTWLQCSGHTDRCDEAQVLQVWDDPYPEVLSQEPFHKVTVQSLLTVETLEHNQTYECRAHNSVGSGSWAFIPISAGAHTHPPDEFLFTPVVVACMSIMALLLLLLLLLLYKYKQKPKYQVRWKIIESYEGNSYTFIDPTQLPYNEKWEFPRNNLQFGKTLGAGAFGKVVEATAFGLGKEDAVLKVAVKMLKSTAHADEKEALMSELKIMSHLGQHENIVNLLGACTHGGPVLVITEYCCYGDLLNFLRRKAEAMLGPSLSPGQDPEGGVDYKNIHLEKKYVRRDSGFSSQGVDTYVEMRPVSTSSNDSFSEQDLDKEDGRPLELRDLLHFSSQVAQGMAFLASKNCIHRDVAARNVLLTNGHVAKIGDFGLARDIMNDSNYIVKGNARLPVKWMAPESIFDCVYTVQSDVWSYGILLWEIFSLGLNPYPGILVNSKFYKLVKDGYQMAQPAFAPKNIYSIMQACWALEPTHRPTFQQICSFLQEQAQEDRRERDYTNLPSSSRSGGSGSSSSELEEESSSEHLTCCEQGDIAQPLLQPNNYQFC
Experimental: as §1, §2, §3, §4, §5, §6

BRAF = target: T10, BRAF (Homo sapiens, UniProt P15056); details: 100 nM, read-out: Percent Control
T10 construct: purchased DiscoveRx KINOMEscan (TRKA and CSF1R IC50 enzymes from Invitrogen)
Experimental: as §1, §2, §3, §4, §5, §6

PYK2 = target: T11, PYK2 (Homo sapiens, UniProt Q14289); details: PYK2, 100 nM; read-out: Percent Control
T11 construct: purchased DiscoveRx KINOMEscan (TRKA and CSF1R IC50 enzymes from Invitrogen)
Experimental: as §1, §2, §3, §4, §5, §6

IRAK4 = target: T12, IRAK4 (Homo sapiens, UniProt Q9NWZ3); details: IRAK4, 100 nM; read-out: Percent Control
T12 construct: purchased DiscoveRx KINOMEscan (TRKA and CSF1R IC50 enzymes from Invitrogen)
Experimental: as §1, §2, §3, §4, §5, §6

LYN = target: T13, LYN (Homo sapiens, UniProt P07948); details: 100 nM
T13 construct: purchased DiscoveRx KINOMEscan (TRKA and CSF1R IC50 enzymes from Invitrogen)
T13 sequence (P07948 whole entry): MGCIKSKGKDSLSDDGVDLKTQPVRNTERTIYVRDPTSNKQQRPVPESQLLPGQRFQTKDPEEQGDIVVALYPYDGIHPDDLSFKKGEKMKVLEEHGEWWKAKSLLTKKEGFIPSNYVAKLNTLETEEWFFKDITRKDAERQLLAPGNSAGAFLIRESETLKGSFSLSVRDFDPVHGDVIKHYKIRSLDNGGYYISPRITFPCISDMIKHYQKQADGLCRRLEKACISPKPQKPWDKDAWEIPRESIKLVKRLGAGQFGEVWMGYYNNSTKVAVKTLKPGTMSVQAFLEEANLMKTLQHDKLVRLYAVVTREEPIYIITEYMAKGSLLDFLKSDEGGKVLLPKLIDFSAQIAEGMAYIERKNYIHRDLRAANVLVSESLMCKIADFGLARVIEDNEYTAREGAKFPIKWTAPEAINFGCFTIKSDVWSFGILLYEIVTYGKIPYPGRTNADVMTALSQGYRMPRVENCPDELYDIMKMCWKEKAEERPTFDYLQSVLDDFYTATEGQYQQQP
Experimental: as §1, §2, §3, §4, §5, §6

YANK2 = target: T14, YANK2 (Homo sapiens, UniProt Q9NY57); details: YANK2, 100 nM; read-out: Percent Control
T14 construct: purchased DiscoverX (outsourced KINOMEscan)
Experimental: as §1, §2, §3, §4, §5, §6

CLK1 = target: T15, CLK1 (Homo sapiens, UniProt P49759); details: CLK1, 100 nM; read-out: Percent Control
T15 construct: purchased DiscoveRx KINOMEscan (TRKA and CSF1R IC50 enzymes from Invitrogen)
Experimental: as §1, §2, §3, §4, §5, §6

PAK1 = target: T16, PAK1 (Homo sapiens, UniProt Q13153); details: PAK1, 100 nM; read-out: Percent Control
T16 construct: purchased DiscoveRx KINOMEscan (TRKA and CSF1R IC50 enzymes from Invitrogen)
Experimental: as §1, §2, §3, §4, §5, §6

PIM1 = target: T17, PIM1 (Homo sapiens, UniProt P11309); details: PIM1, 100 nM; read-out: Percent Control
T17 construct: purchased DiscoveRx KINOMEscan (TRKA and CSF1R IC50 enzymes from Invitrogen)
Experimental: as §1, §2, §3, §4, §5, §6

MET = target: T18, MET (Homo sapiens, UniProt P08581); details: 100 nM, read-out: Percent Control
T18 construct: purchased DiscoveRx KINOMEscan (TRKA and CSF1R IC50 enzymes from Invitrogen)
Experimental: as §1, §2, §3, §4, §5, §6

INSR = target: T19, INSR (Homo sapiens, UniProt P06213); details: 100 nM, read-out: Percent Control
T19 construct: purchased DiscoveRx KINOMEscan (TRKA and CSF1R IC50 enzymes from Invitrogen)
Experimental: as §1, §2, §3, §4, §5, §6

LTK = target: T20, LTK (Homo sapiens, UniProt P29376); details: 100 nM, read-out: Percent Control
T20 construct: purchased DiscoveRx KINOMEscan (TRKA and CSF1R IC50 enzymes from Invitrogen)
Experimental: as §1, §2, §3, §4, §5, §6

SYK = target: T21, SYK (Homo sapiens, UniProt P43405); details: 100 nM, read-out: Percent Control
T21 construct: purchased DiscoveRx KINOMEscan (TRKA and CSF1R IC50 enzymes from Invitrogen)
Experimental: as §1, §2, §3, §4, §5, §6

DLK = target: T22, DLK (Homo sapiens, UniProt Q12852); details: 100 nM, read-out: Percent Control
T22 construct: purchased DiscoveRx KINOMEscan (TRKA and CSF1R IC50 enzymes from Invitrogen)
T22 sequence (Q12852 whole entry): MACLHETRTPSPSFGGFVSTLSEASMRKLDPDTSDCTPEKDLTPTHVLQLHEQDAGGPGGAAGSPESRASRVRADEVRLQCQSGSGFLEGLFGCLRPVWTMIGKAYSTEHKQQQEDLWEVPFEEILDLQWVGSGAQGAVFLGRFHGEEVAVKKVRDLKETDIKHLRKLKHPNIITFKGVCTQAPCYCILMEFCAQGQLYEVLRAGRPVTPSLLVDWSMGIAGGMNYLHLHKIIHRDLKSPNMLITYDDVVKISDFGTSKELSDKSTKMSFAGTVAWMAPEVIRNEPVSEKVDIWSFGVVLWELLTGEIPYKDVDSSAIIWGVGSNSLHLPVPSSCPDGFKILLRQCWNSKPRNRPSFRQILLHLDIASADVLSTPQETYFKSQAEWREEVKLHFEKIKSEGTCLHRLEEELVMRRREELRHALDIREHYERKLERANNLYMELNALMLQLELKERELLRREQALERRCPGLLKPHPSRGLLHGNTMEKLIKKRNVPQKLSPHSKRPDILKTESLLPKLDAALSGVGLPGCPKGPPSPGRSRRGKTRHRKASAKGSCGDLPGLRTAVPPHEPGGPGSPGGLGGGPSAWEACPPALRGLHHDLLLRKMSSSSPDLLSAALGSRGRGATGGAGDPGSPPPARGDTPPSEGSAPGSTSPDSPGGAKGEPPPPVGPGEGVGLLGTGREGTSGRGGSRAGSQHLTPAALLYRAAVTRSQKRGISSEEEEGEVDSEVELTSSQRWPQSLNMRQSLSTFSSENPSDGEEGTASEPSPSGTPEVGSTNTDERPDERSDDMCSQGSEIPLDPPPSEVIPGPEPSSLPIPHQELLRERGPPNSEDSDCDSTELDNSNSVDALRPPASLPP
Experimental: as §1, §2, §3, §4, §5, §6

EPHA1 = target: T23, EPHA1 (Homo sapiens, UniProt P21709); details: EPHA1, 100 nM; read-out: Percent Control
T23 construct: purchased DiscoveRx KINOMEscan (TRKA and CSF1R IC50 enzymes from Invitrogen)
Experimental: as §1, §2, §3, §4, §5, §6

NEK2 = target: T24, NEK2 (Homo sapiens, UniProt P51955); details: NEK2, 100 nM; read-out: Percent Control
T24 construct: purchased DiscoveRx KINOMEscan (TRKA and CSF1R IC50 enzymes from Invitrogen)
Experimental: as §1, §2, §3, §4, §5, §6

TRKA = target: T25, TRKA (Homo sapiens, UniProt P04629); details: 100 nM
T25 construct: purchased Invitrogen
T25 sequence (P04629 33-796): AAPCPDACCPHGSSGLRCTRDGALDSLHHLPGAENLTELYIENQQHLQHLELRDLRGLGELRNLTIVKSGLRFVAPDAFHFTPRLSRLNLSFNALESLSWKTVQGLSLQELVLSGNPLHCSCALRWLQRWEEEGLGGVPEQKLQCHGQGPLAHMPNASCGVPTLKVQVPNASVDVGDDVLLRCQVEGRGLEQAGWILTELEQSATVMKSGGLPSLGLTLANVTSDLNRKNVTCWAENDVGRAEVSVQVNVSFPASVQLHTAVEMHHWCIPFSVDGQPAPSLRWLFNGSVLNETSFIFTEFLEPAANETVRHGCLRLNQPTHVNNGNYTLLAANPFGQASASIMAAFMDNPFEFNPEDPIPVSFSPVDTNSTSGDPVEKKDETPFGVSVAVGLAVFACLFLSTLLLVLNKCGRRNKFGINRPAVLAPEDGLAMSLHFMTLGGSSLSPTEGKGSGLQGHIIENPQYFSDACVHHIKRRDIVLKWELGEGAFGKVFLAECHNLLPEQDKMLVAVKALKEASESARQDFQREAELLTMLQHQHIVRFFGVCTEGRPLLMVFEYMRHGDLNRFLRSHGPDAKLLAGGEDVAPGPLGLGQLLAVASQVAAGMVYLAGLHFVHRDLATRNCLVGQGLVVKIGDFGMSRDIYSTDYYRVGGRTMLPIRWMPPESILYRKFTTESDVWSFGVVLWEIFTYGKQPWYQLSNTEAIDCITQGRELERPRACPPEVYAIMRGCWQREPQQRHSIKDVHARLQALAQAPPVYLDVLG
Experimental: as §1, §2, §3, §4, §5, §6

AURKB = target: T26, AURKB (Homo sapiens, UniProt Q96GD4); details: 100 nM, read-out: Percent Control
T26 construct: purchased DiscoveRx KINOMEscan (TRKA and CSF1R IC50 enzymes from Invitrogen)
Experimental: as §1, §2, §3, §4, §5, §6

CDK9 = target: T27, CDK9 (Homo sapiens, UniProt P50750); details: CDK9, 100 nM; read-out: Percent Control
T27 construct: purchased DiscoveRx KINOMEscan (TRKA and CSF1R IC50 enzymes from Invitrogen)
Experimental: as §1, §2, §3, §4, §5, §6

LIMK2 = target: T28, LIMK2 (Homo sapiens, UniProt P53671); details: LIMK2, 100 nM; read-out: Percent Control
T28 construct: purchased DiscoveRx KINOMEscan (TRKA and CSF1R IC50 enzymes from Invitrogen)
T28 sequence (P53671 whole entry): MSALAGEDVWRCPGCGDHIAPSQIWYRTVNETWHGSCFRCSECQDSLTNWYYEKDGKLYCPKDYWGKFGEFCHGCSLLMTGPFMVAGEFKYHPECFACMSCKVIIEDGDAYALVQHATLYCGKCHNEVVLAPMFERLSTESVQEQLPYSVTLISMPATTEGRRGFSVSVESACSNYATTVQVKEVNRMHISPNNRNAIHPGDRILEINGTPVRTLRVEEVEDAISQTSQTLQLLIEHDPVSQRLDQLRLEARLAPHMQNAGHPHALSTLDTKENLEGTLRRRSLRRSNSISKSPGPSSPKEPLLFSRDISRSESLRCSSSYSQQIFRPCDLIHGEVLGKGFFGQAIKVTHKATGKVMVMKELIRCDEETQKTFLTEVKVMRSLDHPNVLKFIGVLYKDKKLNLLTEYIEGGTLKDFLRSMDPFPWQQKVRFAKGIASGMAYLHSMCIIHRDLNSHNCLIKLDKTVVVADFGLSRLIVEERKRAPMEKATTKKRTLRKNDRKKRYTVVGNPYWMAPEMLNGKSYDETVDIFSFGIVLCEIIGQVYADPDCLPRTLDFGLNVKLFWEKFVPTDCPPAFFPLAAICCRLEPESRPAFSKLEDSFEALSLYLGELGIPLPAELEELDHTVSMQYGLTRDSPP
Experimental: as §1, §2, §3, §4, §5, §6

FYN = target: T29, FYN (Homo sapiens, UniProt P06241); details: 100 nM, read-out: Percent Control
T29 construct: purchased DiscoveRx KINOMEscan (TRKA and CSF1R IC50 enzymes from Invitrogen)
Experimental: as §1, §2, §3, §4, §5, §6

IGF1R = target: T30, IGF1R (Homo sapiens, UniProt P08069); details: 100 nM, read-out: Percent Control
T30 construct: purchased DiscoveRx KINOMEscan (TRKA and CSF1R IC50 enzymes from Invitrogen)
Experimental: as §1, §2, §3, §4, §5, §6

BRSK2 = target: T31, BRSK2 (Homo sapiens, UniProt Q8IWQ3); details: BRSK2, 100 nM; read-out: Percent Control
T31 construct: purchased DiscoveRx KINOMEscan (TRKA and CSF1R IC50 enzymes from Invitrogen)
Experimental: as §1, §2, §3, §4, §5, §6

## CC(C)(C)c1cc(NC(=O)Cc2ccc(-n3cnc4cc(-c5ccc(S(C)(=O)=O)cc5)ccc43)cc2)no1 [NPA101.3]
TIE2
  remaining binding at 0.1 µM: 30%
MLK3
  remaining binding at 0.1 µM: 100%
DRAK1
  remaining binding at 0.1 µM: 75%
FRK
  binding (% bound): > 90 % bound
FRK; FRK, read-out: Percent Control
  remaining binding at 0.1 µM: 1.1%
PKAC-beta
  remaining binding at 0.1 µM: 82%
MEK1
  remaining binding at 0.1 µM: 92%
[1]
  remaining binding at 0.1 µM: 93%
TRKC
  binding (% bound): > 90 % bound
TRKC; TRKC, read-out: Percent Control
  remaining binding at 0.1 µM: 0.25%
CSF1R
  binding (% bound): > 90 % bound
CSF1R; CSF1R, read-out: Percent Control
  remaining binding at 0.1 µM: 0.05%
BRAF
  remaining binding at 0.1 µM: 98%
PYK2
  remaining binding at 0.1 µM: 95%
IRAK4
  remaining binding at 0.1 µM: 100%
LYN
  binding (% bound): > 90 % bound
LYN; LYN, read-out: Percent Control
  remaining binding at 0.1 µM: 2.8%
YANK2
  remaining binding at 0.1 µM: 98%
CLK1
  remaining binding at 0.1 µM: 82%
PAK1
  remaining binding at 0.1 µM: 100%
PIM1
  remaining binding at 0.1 µM: 94%
MET
  remaining binding at 0.1 µM: 79%
INSR
  remaining binding at 0.1 µM: 100%
LTK
  remaining binding at 0.1 µM: 61%
SYK
  remaining binding at 0.1 µM: 100%
DLK
  remaining binding at 0.1 µM: 100%
EPHA1
  remaining binding at 0.1 µM: 39%
NEK2
  remaining binding at 0.1 µM: 100%
TRKA
  binding (% bound): > 90 % bound
TRKA; TRKA, read-out: Percent Control
  remaining binding at 0.1 µM: 1.3%
AURKB
  remaining binding at 0.1 µM: 49%
CDK9
  remaining binding at 0.1 µM: 100%
LIMK2
  remaining binding at 0.1 µM: 94%
FYN
  remaining binding at 0.1 µM: 27%
IGF1R
  remaining binding at 0.1 µM: 100%
BRSK2
  remaining binding at 0.1 µM: 100%
